Assay: mn = molality of the nth substance listed, in mol/kg
Conditions: 350 kPa, Liquid; for apparent molar heat capacity: Extra sensitive DSC

CNC(C)=O [N-methylacetamide] + O
Conditions	apparent molar heat capacity [J/K/mol]	mass density [kg/m3]
278.15 K, m1 = 0.015	221	999.98
278.15 K, m1 = 0.04	230	1000.02
278.15 K, m1 = 0.07	243.9	1000.14
278.15 K, m1 = 0.1001	239.7	1000.14
278.15 K, m1 = 0.2002	240.2	1000.14
278.15 K, m1 = 0.4	238.2	1000.26
278.15 K, m1 = 0.599	251.1	1000.35
278.15 K, m1 = 0.8028	237.5	1000.66
278.15 K, m1 = 1	236.3	1000.98
283.15 K, m1 = 0.015	217	999.8
283.15 K, m1 = 0.04	225	999.78
283.15 K, m1 = 0.07	246	999.85
283.15 K, m1 = 0.1001	242.5	999.83
283.15 K, m1 = 0.2002	243.9	999.82
283.15 K, m1 = 0.4	242.3	999.89
283.15 K, m1 = 0.599	254.9	1000
283.15 K, m1 = 0.8028	242.4	1000.14
283.15 K, m1 = 1	241.4	1000.43
288.15 K, m1 = 0.015	213	999.2
288.15 K, m1 = 0.04	221	999.19
288.15 K, m1 = 0.07	247	999.23
288.15 K, m1 = 0.1001	247.1	999.22
288.15 K, m1 = 0.2002	247.9	999.16
288.15 K, m1 = 0.4	246	999.24
288.15 K, m1 = 0.599	257.6	999.28
288.15 K, m1 = 0.8028	245.8	999.39
288.15 K, m1 = 1	244.9	999.54
293.15 K, m1 = 0.015	220	–
293.15 K, m1 = 0.04	230	–
293.15 K, m1 = 0.07	250	–
293.15 K, m1 = 0.1001	251.4	–
293.15 K, m1 = 0.2002	251.6	–
293.15 K, m1 = 0.4	249.2	–
293.15 K, m1 = 0.599	259.8	–
293.15 K, m1 = 0.8028	248.7	–
293.15 K, m1 = 1	248	–
298.15 K, m1 = 0.015	228	–
298.15 K, m1 = 0.04	238	–
298.15 K, m1 = 0.07	252.1	–
298.15 K, m1 = 0.1001	254.8	–
298.15 K, m1 = 0.2002	254.7	–
298.15 K, m1 = 0.4	251.85	–
298.15 K, m1 = 0.599	261.9	–
298.15 K, m1 = 0.8028	251.4	–
298.15 K, m1 = 1	250.8	–
303.15 K, m1 = 0.015	232	–
303.15 K, m1 = 0.04	245	–
303.15 K, m1 = 0.07	254.5	–
303.15 K, m1 = 0.1001	259	–
303.15 K, m1 = 0.2002	258.7	–
303.15 K, m1 = 0.4	254.53	–
303.15 K, m1 = 0.599	264	–
303.15 K, m1 = 0.8028	254.1	–
303.15 K, m1 = 1	253.5	–
308.15 K, m1 = 0.015	236	994.14
308.15 K, m1 = 0.04	250.5	994.12
308.15 K, m1 = 0.07	257.5	994.1
308.15 K, m1 = 0.1001	262.8	994.07
308.15 K, m1 = 0.2002	261.8	993.96
308.15 K, m1 = 0.4	257.09	993.88
308.15 K, m1 = 0.599	266	993.8
308.15 K, m1 = 0.8028	256.5	993.77
308.15 K, m1 = 1	255.95	993.7
313.15 K, m1 = 0.015	243	–
313.15 K, m1 = 0.04	256.4	–
313.15 K, m1 = 0.07	259.8	–
313.15 K, m1 = 0.1001	264.8	–
313.15 K, m1 = 0.2002	263.9	–
313.15 K, m1 = 0.4	259.34	–
313.15 K, m1 = 0.599	267.9	–
313.15 K, m1 = 0.8028	258.7	–
313.15 K, m1 = 1	258.14	–
318.15 K, m1 = 0.015	252	990.32
318.15 K, m1 = 0.04	264.9	990.29
318.15 K, m1 = 0.07	261.2	990.24
318.15 K, m1 = 0.1001	266	990.21
318.15 K, m1 = 0.2002	265.6	990.07
318.15 K, m1 = 0.4	261.43	989.92
318.15 K, m1 = 0.599	269.7	989.82
318.15 K, m1 = 0.8028	260.8	989.72
318.15 K, m1 = 1	260.24	989.61
323.15 K, m1 = 0.015	259	–
323.15 K, m1 = 0.04	268.9	–
323.15 K, m1 = 0.07	262.6	–
323.15 K, m1 = 0.1001	267.4	–
323.15 K, m1 = 0.2002	267.4	–
323.15 K, m1 = 0.4	263.5	–
323.15 K, m1 = 0.599	271.4	–
323.15 K, m1 = 0.8028	262.77	–
323.15 K, m1 = 1	262.22	–
328.15 K, m1 = 0.015	260	985.77
328.15 K, m1 = 0.04	266.5	985.75
328.15 K, m1 = 0.07	265	985.75
328.15 K, m1 = 0.1001	269.3	985.75
328.15 K, m1 = 0.2002	269.2	985.56
328.15 K, m1 = 0.4	265.52	985.32
328.15 K, m1 = 0.599	273.1	985.18
328.15 K, m1 = 0.8028	264.63	985.04
328.15 K, m1 = 1	264.06	984.85
333.15 K, m1 = 0.015	260	–
333.15 K, m1 = 0.04	265.7	–
333.15 K, m1 = 0.07	267	–
333.15 K, m1 = 0.1001	271.2	–
333.15 K, m1 = 0.2002	271	–
333.15 K, m1 = 0.4	267.55	–
333.15 K, m1 = 0.599	274.8	–
333.15 K, m1 = 0.8028	266.47	–
333.15 K, m1 = 1	265.86	–
338.15 K, m1 = 0.015	264	–
338.15 K, m1 = 0.04	266.3	–
338.15 K, m1 = 0.07	269.1	–
338.15 K, m1 = 0.1001	272.8	–
338.15 K, m1 = 0.2002	272.4	–
338.15 K, m1 = 0.4	269.46	–
338.15 K, m1 = 0.599	276.4	–
338.15 K, m1 = 0.8028	268.26	–
338.15 K, m1 = 1	267.6	–
343.15 K, m1 = 0.015	268	–
343.15 K, m1 = 0.04	267.1	–
343.15 K, m1 = 0.07	270.8	–
343.15 K, m1 = 0.1001	274.1	–
343.15 K, m1 = 0.2002	273.7	–
343.15 K, m1 = 0.4	271.09	–
343.15 K, m1 = 0.599	277.9	–
343.15 K, m1 = 0.8028	269.89	–
343.15 K, m1 = 1	269.2	–
348.15 K, m1 = 0.015	271	974.89
348.15 K, m1 = 0.04	268.3	974.87
348.15 K, m1 = 0.07	272.5	974.87
348.15 K, m1 = 0.1001	275.2	974.82
348.15 K, m1 = 0.2002	274.9	974.63
348.15 K, m1 = 0.4	272.57	974.29
348.15 K, m1 = 0.599	279.4	974.05
348.15 K, m1 = 0.8028	271.43	973.79
348.15 K, m1 = 1	270.73	973.51
353.15 K, m1 = 0.015	273	–
353.15 K, m1 = 0.04	269.5	–
353.15 K, m1 = 0.07	274	–
353.15 K, m1 = 0.1001	276.3	–
353.15 K, m1 = 0.2002	276	–
353.15 K, m1 = 0.4	273.95	–
353.15 K, m1 = 0.599	280.7	–
353.15 K, m1 = 0.8028	272.85	–
353.15 K, m1 = 1	272.12	–
358.15 K, m1 = 0.015	274	968.67
358.15 K, m1 = 0.04	270.2	968.65
358.15 K, m1 = 0.07	275.5	968.63
358.15 K, m1 = 0.1001	277.5	968.56
358.15 K, m1 = 0.2002	277.2	968.36
358.15 K, m1 = 0.4	275.31	967.97
358.15 K, m1 = 0.599	281.9	967.67
358.15 K, m1 = 0.8028	274.18	967.36
358.15 K, m1 = 1	273.45	967.06
363.15 K, m1 = 0.015	276	–
363.15 K, m1 = 0.04	270.5	–
363.15 K, m1 = 0.07	277.1	–
363.15 K, m1 = 0.1001	278.7	–
363.15 K, m1 = 0.2002	278.5	–
363.15 K, m1 = 0.4	276.62	–
363.15 K, m1 = 0.599	283.1	–
363.15 K, m1 = 0.8028	275.42	–
363.15 K, m1 = 1	274.69	–
368.15 K, m1 = 0.015	277	961.97
368.15 K, m1 = 0.04	270.9	961.92
368.15 K, m1 = 0.07	278.3	961.9
368.15 K, m1 = 0.1001	279.7	961.83
368.15 K, m1 = 0.2002	279.5	961.62
368.15 K, m1 = 0.4	277.76	961.19
368.15 K, m1 = 0.599	284.1	960.81
368.15 K, m1 = 0.8028	276.51	960.43
368.15 K, m1 = 1	275.75	960.09
373.15 K, m1 = 0.015	277	–
373.15 K, m1 = 0.04	270.8	–
373.15 K, m1 = 0.07	279.3	–
373.15 K, m1 = 0.1001	280.7	–
373.15 K, m1 = 0.2002	280.5	–
373.15 K, m1 = 0.4	278.82	–
373.15 K, m1 = 0.599	285.12	–
373.15 K, m1 = 0.8028	277.53	–
373.15 K, m1 = 1	276.77	–
378.15 K, m1 = 0.015	275	–
378.15 K, m1 = 0.04	270.6	–
378.15 K, m1 = 0.07	280	–
378.15 K, m1 = 0.1001	281.5	–
378.15 K, m1 = 0.2002	281.4	–
378.15 K, m1 = 0.4	279.75	–
378.15 K, m1 = 0.599	286.01	–
378.15 K, m1 = 0.8028	278.43	–
378.15 K, m1 = 1	277.65	–
383.15 K, m1 = 0.015	273	–
383.15 K, m1 = 0.04	270.2	–
383.15 K, m1 = 0.07	280.4	–
383.15 K, m1 = 0.1001	282.2	–
383.15 K, m1 = 0.2002	282.2	–
383.15 K, m1 = 0.4	280.52	–
383.15 K, m1 = 0.599	286.77	–
383.15 K, m1 = 0.8028	279.21	–
383.15 K, m1 = 1	278.41	–
388.15 K, m1 = 0.015	273	–
388.15 K, m1 = 0.04	270.5	–
388.15 K, m1 = 0.07	281.2	–
388.15 K, m1 = 0.1001	282.6	–
388.15 K, m1 = 0.2002	282.8	–
388.15 K, m1 = 0.4	281.15	–
388.15 K, m1 = 0.599	287.45	–
388.15 K, m1 = 0.8028	279.89	–
388.15 K, m1 = 1	279.13	–
393.15 K, m1 = 0.015	278	–
393.15 K, m1 = 0.04	273.2	–
393.15 K, m1 = 0.07	282.4	–
393.15 K, m1 = 0.1001	281.9	–
393.15 K, m1 = 0.2002	282.8	–
393.15 K, m1 = 0.4	281.41	–
393.15 K, m1 = 0.599	287.87	–
393.15 K, m1 = 0.8028	280.37	–
393.15 K, m1 = 1	279.71	–

Source: the NIST ThermoML archive (doi:10.1016/j.jct.2006.04.007)
